Read-outs that look alike come from different tables or passages of the source.
Tests used:
Rat white adipocytes = test: Inhibition of the differentiation of adipocytes (Oil Red O); assay type: cell-based; settings: 100 nM test compound, 5 days, Oil Red O ABS550, control = 100%, blank = 0%, Table 3; for activity at 0.1 µM: Rattus norvegicus, Adipocyte, 120 h, read-out: Rate of Differentiation (%)
Protocol: Rat white adipocytes contained in the white adipocyte culture kit purchased from HOKUDO were used. As the medium for proliferation and for differentiation-inducing, the medium contained in the white adipocyte culture kit purchased from HOKUDO was used. The cells in the present experiment were cultured in a CO2 incubator (37° C., 95% R.H., 5% CO2).
Immediately after arrival of the purchased cells, all medium for transportation was discarded and replaced with 5 ml of proliferation medium (/25 cm^2-flask) and the cells were cultured for one day. Then, a cell suspension was prepared with proliferation medium so as to be 83,000 cells/mL, and the cell suspension was plated into a type I 96-well collagen-coated microplate (SUMITOMO BAKELITE CO., ltd.) so as to be 5,000 cells/well (60 μL/well).
On the next day, all the proliferation medium was discarded and replaced with 147 μL/well of differentiation-inducing medium. Further, 1) in the group treated with the test compound, 3 μL/well of the solution, in which a test compound (100 μM) was dissolved in DMSO solution and diluted with differentiation-inducing medium by 20 times (final concentration of the test compound: 100 nM, final concentration of DMSO solution: 0.1% (v/v)), were added to the well where the cells were plated. 2) In the control group, 3 μL/well of DMSO solution that was diluted with differentiation-inducing medium by 20 times (final concentration of DMSO: 0.1% (v/v)) were added to the well where the cells were plated. Further, 3) in the blank group, 3 μL/well of DMSO solution that was diluted with differentiation-inducing medium by 20 times (final concentration: 0.1% (v/v)), was added to the blank well.
After culturing for 5 days, all differentiation-inducing medium was discarded and replaced with 60 μL of 10% (v/v) formaldehyde solution (for fixation) in each well and the cells were kept stationary for 20 min at room temperature. After this, the fixative solution was discarded and replaced with 60 μL of 0.2% (v/v) Triton X (Sigma-Aldrich Japan K. K.) solution in each well and kept stationary for 5 min at room temperature. Then all Triton X solution was discarded and replaced with 60 μL of 60% (v/v) isopropanol solution containing dissolved Oil Red O (Sigma-Aldrich Japan K. K.) so as to be 0.3%, which was adipose tissue staining solution, and the well was left stationary for 10 min at room temperature. After the adipose tissue staining solution was discarded, the well was washed twice with 60 JIL of 60% isopropanol solution. Then, 100 μL of the DMSO solution were added to each well and stirred for 5 min at room temperature, The absorbance was measured at 550 nm (ABS550) with a multi-plate reader (LabSystems), and the stained amount with Oil Red O was determined. The measured level at ABS550 in the control group was defined as 100%, while the level at ABS550 in the blank group was defined as 0%. The differentiation rate (%) of the adipocytes treated with the test compound was calculated.

leptin production = test: Enhancing activity for leptin production in adipocytes (ELISA); assay type: cell-based, rat; settings: Rattus norvegicus, Adipocyte, leptin concentration as % of control group, read-out: Facilitating activity to produce leptin; for activity at 0.001 µM: 1 nm; for activity at 0.01 µM: 10 nm; for activity at 0.1 µM: 100 nm
Protocol: Hanks solution was used for collection of adipose tissue. The Hanks solution was prepared by filtration of a mixed solution (pH: 7.5) of 120 mM NaCl, 4.8 mM KCl, 0.74 mM MgSO4, 0.30 mM Na2HPO4, 0.40 mM KH2PO4, 20 mM HEPES, 0.05% (w/v) glucose, 2% (w/v) BSA (Sigma-Aldrich Japan K. K., Cat. No. A7888), 0.95 mM CaCl2, 4.17 mM NaHCO3 and 1% (v/v) penicillin-streptomycin liquid (GIBCO BRL, Cat. No. 15140-122). The adipocytes were cultured in Dulbecco's modified Eagle's medium (GIBCO BRL, Cat. No. 11995-040) mixed with DMEM/F-12 (GIBCO BRL, Cat. No. 11320-033) at a ratio of 1:1, and added 0.2% (v/v) Hanks solution, 0.2 μg/L sodium selenite (GIBCO BRL, Cat. No. 13012-018), 0.002% (v/v) ethanolamine, 25 mM HEPES and 1% (v/v) penicillin-streptomycin liquid (GIBCO BRL, Cat. No. 15140-122). As many as possible of the other reagents used were special grade. In this experiment, the cells were cultured in a CO2 incubator (37° C., 95% humidity, 5% CO2).
Male Wistar Imamichi rats of 6 weeks old were sacrificed by bleeding following decapitation, and adipose tissue was removed from the epididymis and sectioned after the vessels were removed in warmed Hanks solution at 37° C. and were weighed. One (1) mL of Hanks solution containing 10 mg collagenase (Wako Pure Chemical Industries, Ltd., 034-10533) was added to the adipose tissue prepared. The solution was transferred into a tube having a volume of 50 mL, and the cells were evenly dispersed by incubation under gentle shaking at 37° C., 90 rpm, for 50 min. Then 20 mL of Hanks solution were added and filtrated through Nylon-mesh with a mesh diameter of 200 μm for removal of undigested tissue pieces. The floating adipocytes were separated from sediments and substances located in the lower layer by centrifugation at 1,000 rpm for 1 min at room temperature. The sediment and 22 mL of the low layer were pulled out with a probe, and the floating adipocytes were recovered. This procedure was repeated twice with Hanks solution and for 4 times with the culture medium. After these procedures the adipocytes were suspended in the culture medium at a volume of 60 mL per 1 g of the adipose tissue weighed previously. 100 μL of the suspended solution were plated in each well of a 96-well microplate (ASAHI TECHNO GLASS Corp.) In the group treated with the test compound, 1 μL/well of DMSO solution containing the dissolved the test compound at concentrations of 200 μM, 20 μM, 2 μM and 0.2 μM (final concentrations of the test compound: 1 μM, 100 nM, 10 nM and 1 nM, respectively) was plated in each of the well. In the control group, 1 μL/well of DMSO (final concentration: 0.1% (v/v)) was plated in each well. The plate was placed stationary in a CO2 incubator for 1 hr or longer, and the contents in the solution were equilibrated at 37° C. After they were equilibrated, the solution in each well was stirred with a magnetic stirrer in a water bath and the suspended solution maintained at 37° C. was plated into each well of the plate at 100 μL/well. After incubation of the cells for 24 hr, the suspended solution of cells was filtrated through a filter for the microplate, MultiScreen (MILLOPORE, MDV-N65). The concentration of leptin in the filtrated solution was determined with ELISA methods by using a Rat Leptin Determination Kit-IBL (Immuno-Biological Laboratories Co., Ltd., Cat. No. 17195). The facilitating activity of the compound to produce leptin was calculated from the following equation based on the concentration of leptin determined.
Facilitating Activity of the Compound to Produce Leptin (%)=(A/B)×100
A: Concentration of Leptin in the Treated Group with the Test Compound.
B: Concentration of Leptin in the Control Group.

CC(C)(C)OC(=O)N1CCN(c2ccc(NC(=O)c3cc([N+](=O)[O-])ccc3Cl)cc2)CC1 [Example 132, N-[4-(4-tert-Butoxycarbonylpiperazin-1-yl)phenyl]-(2-chloro-5-nitrophenyl)carboxamide]
activity at 0.1 µM (Rat white adipocytes): 26.9% | activity at 1 µM (leptin production; 24 h): 127% | activity at 0.001 µM (leptin production; 24 h): 123% | activity at 0.01 µM (leptin production; 24 h): 137% | activity at 0.1 µM (leptin production; 24 h): 119%

O=C(Nc1ccc(-c2ccc(NC(=O)c3cc([N+](=O)[O-])ccc3Cl)cc2)cc1)c1cc([N+](=O)[O-])ccc1Cl [Example 163, 4-[4-[(2-Chloro-5-nitrophenyl)carbonylamino)phenyl]phenyl-(2-chloro-5-nitrophenyl)carboxamide]
activity at 0.1 µM (Rat white adipocytes): 48% | activity at 1 µM (leptin production; 24 hr): 124% | activity at 0.001 µM (leptin production; 24 hr): 108% | activity at 0.01 µM (leptin production; 24 hr): 117% | activity at 0.1 µM (leptin production; 24 hr): 118%

O=C(Nc1ccc(-c2ccc(-n3cccc3)cc2)cc1)c1cc([N+](=O)[O-])ccc1Cl [Example 186, N-[4-[4-(Pyrrol-1-yl)phenyl]phenyl]-(2-chloro-5-nitrophenyl)carboxamide]
activity at 0.1 µM (Rat white adipocytes): 56.3% | activity at 1 µM (leptin production; 24 h): 133% | activity at 0.01 µM (leptin production; 24 h): 118% | activity at 0.1 µM (leptin production; 24 h): 117%

CCCCCCN(CCC)c1ccc(-c2ccc(NC(=O)c3cc([N+](=O)[O-])ccc3Cl)cc2)cc1 [Example 198, N-[4-[4-(N-Hexyl-N-propylamino)phenyl]phenyl]-(2-chloro-5-nitrophenyl)carboxamide]
activity at 0.1 µM (Rat white adipocytes): 48.2% | activity at 1 µM (leptin production; 24 h): 111% | activity at 0.1 µM (leptin production; 24 h): 111%

CN1c2ccccc2N=C(c2ccc(NC(=O)c3cc([N+](=O)[O-])ccc3Cl)cc2)c2cc3c(cc21)C(C)(C)CCC3(C)C [Example 240, N-[4-(5,7,7,10,10-Pentamethyl-7,8,9,10-tetrahydro-5H-5,13-diazabenzo[4,5]cyclohepta[1,2-b]naphthalen-12-yl)phenyl]-(2-chloro-5-nitrophenyl)carboxamide]
activity at 0.1 µM (Rat white adipocytes): 35.2%

NC(=O)Nc1ccc(-c2ccc(NC(=O)c3cc([N+](=O)[O-])ccc3Cl)cc2)cc1 [Example 243, N-[4-[4-(Aminocarbonylamino)phenyl]phenyl]-(2-chloro-5-nitrophenyl)carboxamide]
activity at 0.1 µM (Rat white adipocytes): 41.1%

COc1cccc(NC(=O)Nc2ccc(-c3ccc(NC(=O)c4cc([N+](=O)[O-])ccc4Cl)cc3)cc2)c1 [Example 247, N-[4-[4-[(3-Methoxyphenyl)aminocarbonylamino]phenyl]phenyl]-(2-chloro-5-nitrophenyl)carboxamide]
activity at 0.1 µM (Rat white adipocytes): 54%

O=C(NC(=S)Nc1ccc(-c2ccc(NC(=O)c3cc([N+](=O)[O-])ccc3Cl)cc2)cc1)c1ccccc1 [Example 250, N-[4-[4-(Benzoylaminothiocarbonylamino)phenyl]phenyl]-(2-chloro-5-nitrophenyl)carboxamide]
activity at 0.1 µM (Rat white adipocytes): 40.8%

Nc1nc(-c2ccc(NC(=O)c3cc([N+](=O)[O-])ccc3Cl)cc2)cs1 [Example 255, N-[4-(2-Aminothiazol-4-yl)phenyl]-(2-chloro-5-nitrophenyl)carboxamide]
activity at 0.1 µM (Rat white adipocytes): 55%

CC(C)(C)OC(=O)Nc1ccc2nc(NC(=O)c3cc([N+](=O)[O-])ccc3Cl)sc2c1 [Example 260, N-[(6-tert-Butoxycarbonylamino)benzothiazol-2-yl]-(2-chloro-5-nitrophenyl)carboxamide]
Rate of Differentiation (%) (Rat white adipocytes): 84.6%

CC(=O)Nc1nc(-c2ccc(NC(=O)c3cc([N+](=O)[O-])ccc3Cl)cc2)cs1 [Example 265, N-[4-(2-Acetylaminothiazol-4-yl)phenyl]-(2-chloro-5-nitrophenyl)carboxamide]
activity at 0.1 µM (Rat white adipocytes): 80.8%

CC(=O)Nc1nc(-c2cccc(NC(=O)c3cc([N+](=O)[O-])ccc3Cl)c2)cs1 [Example 266, N-[3-(2-Acetylaminothiazol-4-yl)phenyl]-(2-chloro-5-nitrophenyl)carboxamide]
activity at 0.1 µM (Rat white adipocytes): 63.5%

CCOC(=O)NC(=S)NCCc1ccc(NC(=O)c2cc([N+](=O)[O-])ccc2Cl)cc1 [Example 272, N-[4-(2-Ethoxycarbonylaminothiocarbonylaminoethyl)phenyl]-(2-chloro-5-nitrophenyl)carboxamide]
activity at 0.1 µM (Rat white adipocytes): 41.7%

O=C(Nc1cccc(CCO)c1)c1cc([N+](=O)[O-])ccc1Cl [Example 275, N-[3-(2-Hydroxyethyl)phenyl]-(2-chloro-5-nitrophenyl)carboxamide]
activity at 0.1 µM (Rat white adipocytes): 47.9%

N-[4-(3-Methanesulfonylaminophenyl)thioazol-2-yl]-(2-chloro-5-nitrophenyl)carboxamide [Example 278]
Rate of Differentiation (%) (Rat white adipocytes): 68.6%

Reference: patent US20030134859A1 (SANKYO COMPANY, LIMITED, priority 2000, published 2003)
